Laboratory results taken from patent US20090023731A1, “SOLUBLE EPOXIDE HYDROLASE INHIBITORS” (Arete Therapeutics, Inc., priority 2007, published 2009).

How the values were obtained:
[1] = tested on: soluble epoxide hydrolase (sEH); test: Fluorescent assay for mouse and human soluble epoxide hydrolase (CMNPC substrate); assay type: biochemical
Protocol: Recombinant mouse sEH (MsEH) and human sEH (HsEH) were produced in a baculovirus expression system as previously reported. […] The expressed proteins were purified from cell lysate by affinity chromatography. […] Protein concentration was quantified using the Pierce BCA assay using bovine serum albumin as the calibrating standard.
The IC50s for each inhibitor were according to the following procedure:
Bis/Tris HCl 25 mM pH 7.0 containing 0.1 mg/mL of BSA (buffer A) CMNPC at 0.25 mM in DMSO.
Mother solution of enzyme in buffer A (Mouse sEH at 6 μg/mL and Human sEH at 5 μg/mL). Inhibitor dissolved in DMSO at the appropriate concentration.
In a black 96 well plate, fill all the wells with 150 μL of buffer A.
Add 2 μL of DMSO in well A2 and A3, and then add 2 μL of inhibitor solution in A1 and A4 through A12.
Add […] of buffer A in row A, then mix several time and transfer […] to row B. Repeat this operation up to row H. The […] removed from row H is discarded.
Add […] of buffer A in column 1 and 2, then add […] of enzyme solution to column 3 to 12.
Incubate the plate for 5 minutes in the plate reader at 30° C.
During incubation prepare the working solution of substrate by mixing 3.68 mL of buffer A (4×0.920 mL) with 266 μL (2×133 μL) of substrate solution).
The velocities are used to analyze and calculate the IC50s.

| SMILES | melting point | % Inh ([1]; inhibitor conc. 50 nM) | also measured |
| --- | --- | --- | --- |
| O=C(Nc1ccc(Oc2ccccc2)cc1)Nc1ccc(C(F)(F)F)cc1 [Compound 39, 1-(4-Phenoxy-phenyl)-3-(4-trifluoromethyl-phenyl)-urea] | 211 to 213 °C | 90% | – |
| O=C(Nc1ccc(Oc2ccc(C(=O)O)cc2)cc1)Nc1cccc(C(F)(F)F)c1 [Compound 67, 4-(4-(3-(3-(trifluoromethyl)phenyl)ureido)phenoxy)benzoic acid] | 318 °C | – | % Inh ([1]; inhibitor conc. 2000 nM): 99% |
| O=C(Nc1ccc(Oc2ccc(C(=O)O)cc2)cc1)Nc1ccc(C(F)(F)F)cc1 [Compound 66, 4-(4-(3-(4-(trifluoromethyl)phenyl)ureido)phenoxy)benzoic acid] | > 400 °C | – | % Inh ([1]; inhibitor conc. 2000 nM): 100% |
| O=C(Nc1cccc(OCc2ccccc2)c1)NC12CC3CC(CC(C3)C1)C2 [Compound 57, 1-Adamantan-1-yl-3-(3-benzyloxy-phenyl)-urea] | 232 to 235 °C | 98% | – |
| O=C(Nc1ccc(Oc2cccc(C(=O)O)c2)cc1)NC12CC3CC(CC(C3)C1)C2 [Compound 59, 3-(4-(3-Adamantan-1-ylureido)phenoxy)benzoic acid] | 185 to 187 °C | – | % Inh ([1]; inhibitor conc. 5000 nM): 99% |
| O=C(Nc1ccc(C(F)(F)F)cc1)Nc1cccc(OCc2ccccc2)c1 [Compound 37, 1-(3-Benzyloxy-phenyl)-3-(4-trifluoromethyl-phenyl)-urea] | 208 to 210 °C | 99% | – |
| O=C(Nc1ccc(F)cc1)Nc1cccc(OCc2ccccc2)c1 [Compound 38, 1-(3-Benzyloxy-phenyl)-3-(4-fluoro-phenyl)-urea] | 187 to 189 °C | 93% | – |
| O=C(Nc1ccc(C(F)(F)F)cc1)Nc1cccc(Oc2ccccc2)c1 [Compound 40, 1-(3-Phenoxy-phenyl)-3-(4-trifluoromethyl-phenyl)-urea] | 178 to 181 °C | 96% | – |
| O=C(Cc1ccc(C(F)(F)F)cc1)Nc1ccc(OCCCN2CCOCC2)cc1 [Compound 27, N-[4-(3-Morpholin-4-yl-propoxy)-phenyl]-2-(4-trifluoromethyl-phenyl)-acetamide] | – | – | % Inh ([1]; inhibitor conc. 500 nM): 83% |
| O=C(Cc1ccc(F)c(F)c1)Nc1cccc(OCCCN2CCOCC2)c1 [Compound 19, 2-(3,4-Difluoro-phenyl)-N-[3-(3-morpholin-4-yl-propoxy)-phenyl]-acetamide] | – | – | % Inh ([1]; inhibitor conc. 5000 nM): 92% |
| O=C(CC12CC3CC(CC(C3)C1)C2)NC1CCCC(OCCCN2CCOCC2)C1 (stereo not shown) [Compound 49, 2-Adamantan-1-yl-N-[3-(3-morpholin-4-yl-propoxy)-cyclohexyl]-acetamide] | – | 79% | – |
| O=C(CNC12CC3CC(CC(C3)C1)C2)Nc1cccc(OCCCN2CCOCC2)c1 [Compound 58, 2-(Adamantan-1-ylamino)-N-[3-(3-morpholin-4-yl-propoxy)-phenyl]-acetamide] | – | – | % Inh ([1]; inhibitor conc. 500 nM): 81% |
| O=C(Nc1cccc(OCCCN2CCOCC2)c1)c1ccc(C(F)(F)F)cc1 [Compound 36, N-[3-(3-Morpholin-4-yl-propoxy)-phenyl]-4-trifluoromethyl-benzamide] | – | – | % Inh ([1]; inhibitor conc. 500 nM): 79% |
| O=C(Nc1cccc(OCCCN2CCOCC2)c1)NC1CCCCC1 [Compound 41, 1-Cyclohexyl-3-[3-(3-morpholin-4-yl-propoxy)-phenyl]-urea] | – | 96% | – |
| O=C(Nc1ccc(F)c(OCCCN2CCOCC2)c1)NC12CC3CC(CC(C3)C1)C2 [Compound 53, 1-Adamantan-1-yl-3-[4-fluoro-3-(3-morpholin-4-yl-propoxy)-phenyl]-urea] | – | 92% | – |
| O=C(Nc1cccc(OCCCN2CCOCC2)c1)Nc1c(F)cc(F)cc1F [Compound 6, 1-[3-(3-Morpholin-4-yl-propoxy)-phenyl]-3-(2,4,6-trifluoro-phenyl)-urea] | – | – | % Inh ([1]; inhibitor conc. 50000 nM): 92% |

| SMILES | melting point | % Inh ([1]; inhibitor conc. 50 nM) | also measured |
| --- | --- | --- | --- |
| O=C(Nc1cccc(OCCCN2CCOCC2)c1)Nc1cccc(C(F)(F)F)c1 [Compound 10, 1-[3-(3-Morpholin-4-yl-propoxy)-phenyl]-3-(3-trifluoromethyl-phenyl)-urea] | – | 74% | – |
| O=C(Cc1ccc(Cl)cc1)Nc1ccc(OCCCN2CCOCC2)cc1 [Compound 20, 2-(4-Chloro-phenyl)-N-[4-(3-morpholin-4-yl-propoxy)-phenyl]-acetamide] | – | – | % Inh ([1]; inhibitor conc. 500 nM): 72% |
| O=C(Nc1ccc(OCCCN2CCOCC2)cc1)NC1CCCCC1 [Compound 45, 1-Cyclohexyl-3-[4-(3-morpholin-4-yl-propoxy)-phenyl]-urea] | – | 79% | – |
| O=C(Nc1ccc(Oc2ccc(C(=O)O)cc2)cc1)NC12CC3CC(CC(C3)C1)C2 [Compound 65, 4-(4-(3-(adamantyl)ureido)phenoxy)benzoic acid] | 162 to 166 °C | – | % Inh ([1]; inhibitor conc. 2000 nM): 100% |
| O=C(Nc1cccc(OCCCN2CCOCC2)c1)Nc1ccc(F)cc1F [Compound 5, 1-(2,4-Difluoro-phenyl)-3-[3-(3-morpholin-4-yl-propoxy)-phenyl]-urea] | – | – | % Inh ([1]; inhibitor conc. 500 nM): 78% |
| O=C(Nc1cccc(OCCCN2CCOCC2)c1)Nc1ccc(F)c(F)c1 [Compound 4, 1-(3,4-Difluoro-phenyl)-3-[3-(3-morpholin-4-yl-propoxy)-phenyl]-urea] | – | 75% | – |
| O=C(Nc1cccc(OCCCN2CCOCC2)c1)C1CCCCC1 [Compound 56, Cyclohexanecarboxylicacid [3-(3-morpholin-4-yl-propoxy)-phenyl]-amide] | – | – | % Inh ([1]; inhibitor conc. 5000 nM): 94% |
| O=C(Nc1cccc(Oc2ccc(C(=O)O)cc2)c1)NC12CC3CC(CC(C3)C1)C2 [Compound 68] | 152 to 154 °C | – | – |
| O=C(Nc1ccc(Oc2cccc(C(=O)O)c2)cc1)Nc1ccc(C(F)(F)F)cc1 [Compound 60, 3-(4-(3-(4-(trifluoromethyl)phenyl)ureido)phenoxy)benzoic acid] | – | – | % Inh ([1]; inhibitor conc. 500 nM): 92% |
| O=C(Cc1ccc(OC(F)(F)F)cc1)Nc1cccc(OCCCN2CCOCC2)c1 [Compound 23, N-[3-(3-Morpholin-4-yl-propoxy)-phenyl]-2-(4-trifluoromethoxy-phenyl)-acetamide] | – | – | % Inh ([1]; inhibitor conc. 500 nM): 86% |
| S=C(Nc1cccc(OCCCN2CCOCC2)c1)NC12CC3CC(CC(C3)C1)C2 [Compound 61] | – | – | % Inh ([1]; inhibitor conc. 500 nM): 96% |
| O=C(NCCc1ccc(OCc2ccccc2)cc1)NCC12CC3CC(CC(C3)C1)C2 [Compound 73, 1-(4-(benzyloxy)phenethyl)-3-(adamantylmethyl)urea] | – | – | % Inh ([1]; inhibitor conc. 200 nM): 97% |
| O=C(Cc1ccc(OC(F)(F)F)cc1)Nc1ccc(OCCCN2CCOCC2)cc1 [Compound 35, N-[4-(3-Morpholin-4-yl-propoxy)-phenyl]-2-(4-trifluoromethoxy-phenyl)-acetamide] | – | – | % Inh ([1]; inhibitor conc. 5000 nM): 93% |
| O=C(Nc1ccc(F)cc1)Nc1cccc(OCCCN2CCOCC2)c1 [Compound 2, 1-(4-Fluoro-phenyl)-3-[3-(3-morpholin-4-yl-propoxy)-phenyl]-urea] | – | 82% | – |
| O=C(CC12CC3CC(CC(C3)C1)C2)Nc1ccc(OCCCN2CCOCC2)cc1 [Compound 46, 2-Adamantan-1-yl-N-[4-(3-morpholin-4-yl-propoxy)-phenyl]-acetamide] | – | 93% | – |
